Source: US20240376148A1, “MEDICAMENT FOR INHIBITING DIETARY OBESITY AND POLYPEPTIDE USED THEREFOR” (INSTITUTE OF ZOOLOGY, CHINESE ACADEMY OF SCIENCES, priority 2022, published 2024)

What was measured:
[1] = SPF mice feeding experiment (high-fat diet); assay type: in vivo, C57/B16J mice; conditions: for subcutaneous and visceral fat weight (inguinal subcutaneous, epididymis, perirenal) vs HFD group: 8 weeks; for weekly feed intake vs control HFD group: after 3-4 weeks; for body weight decrease compared with the HFD group: intragastric 0.75 mg-3 mg/Kg once/day, after 8 weeks
Experimental: C57/B16J mice were used in the SPF mice experiment. At the beginning of the experiment, C57/B16J mice were 4 weeks old, and each weighed 15±1 g. They were raised in a room with suitable temperature and humidity control, and the light/dark cycle was 12 hours, free diet and drinking water, and fed with standard laboratory feed (also known as growth and reproduction feed, item number SPFSLFZ003, product of SPF (Beijing) Experimental Animal Technology Co., Ltd.). After one week of adaptation, they were randomly assigned to a cage, 4-6 mice per cage.
A total of 12 treatments were set up, each with 2 cages of C57/B16J mice, and each treatment was subjected to different feeding treatments, specifically as follows:
NC group (i.e. normal diet group): fed with standard laboratory feed (also known as growth and reproduction feed, SPFSLFZ003), free diet and drinking water, each intragastrically administrated with 0.2 ml solvent daily for 8 weeks.
HFD group (i.e. high-fat diet group): fed with high-fat diet, the high-fat diet used was rodent feed (containing 60% fat, D12492, formula reference Le Roy, T., et al. Dysosmobacter welbionis is a newly isolated human commensal bacterium preventing diet-induced obesity and metabolic disorders in mice. Gut (2021).), free diet and drinking water, each intragastrically administrated with 0.2 ml solvent daily for 8 weeks.
(§1) D1 group (i.e. high-fat diet+D1 intragastric administration group): fed with high-fat diet, free diet and drinking water. Intragastrically administrated with synthetic D1, 0.75 mg-3 mg/Kg body weight, 0.2 ml, once/day for 8 weeks.
(§2) D2 group (i.e. high-fat diet+D2 intragastric administration group): fed with high-fat diet, free diet and drinking water. Intragastrically administrated with synthetic D2, 0.75 mg-3 mg/Kg body weight, 0.2 ml, once/day for 8 weeks.
D3 group (i.e. high-fat diet+D3 intragastric administration group): fed with high-fat diet, free diet and drinking water. Intragastrically administrated with synthetic D3, 0.75 mg-3 mg/Kg body weight, 0.2 ml, once/day for 8 weeks.
D4 group (i.e. high-fat diet+D4 intragastric administration group): fed with high-fat diet, free diet and drinking water. Intragastrically administrated with synthetic D4, 0.75 mg-3 mg/Kg body weight, 0.2 ml, once/day for 8 weeks.
D5 group (i.e. high-fat diet+D5 intragastric administration group): fed with high-fat diet, free diet and drinking water. Intragastrically administrated with synthetic D5, 0.75 mg-3 mg/Kg body weight, 0.2 ml, once/day for 8 weeks.
D6 group (i.e. high-fat diet+D6 intragastric administration group): fed with high-fat diet, free diet and drinking water. Intragastrically administrated with synthetic D6, 0.75 mg-3 mg/Kg body weight, 0.2 ml, once/day for 8 weeks.
D7 group (i.e. high-fat diet+D7 intragastric administration group): fed with high-fat diet, free diet and drinking water. Intragastrically administrated with synthetic D7, 0.75 mg-3 mg/Kg body weight, 0.2 ml, once/day for 8 weeks.
D8 group (i.e. high-fat diet+D8 intragastric administration group): fed with high-fat diet, free diet and drinking water. Intragastrically administrated with synthetic D8, 0.75 mg-3 mg/Kg body weight, 0.2 ml, once/day for 8 weeks.
D9 group (i.e. high-fat diet+D9 intragastric administration group): fed with high-fat diet, free diet and drinking water. Intragastrically administrated with synthetic D9, 0.75 mg-3 mg/Kg body weight, 0.2 ml, once/day for 8 weeks.
D10 group (i.e. high-fat diet+D10 intragastric administration group): fed with high-fat diet, free diet and drinking water. Intragastrically administrated with synthetic D10, 0.75 mg-3 mg/Kg body weight, 0.2 ml, once/day for 8 weeks.
The feed intake was tracked every week. After the experiment, the mice were weighed and photographs were taken to compare the body size of the mice. After that, the mice were killed by cervical dislocation. […]

A. muciniphila = experiment: qPCR of relative abundance of A. muciniphila in intestinal flora of SPF mice; assay type: in vivo; conditions: p<0.05
Experimental: In order to verify the changes in the relative abundance of A.muciniphila in the intestinal flora of mice fed with other HD, qPCR experiments were performed on the changes of intestinal flora in mice. Faecal bacterial DNA was extracted from the faeces of mice in the NC, HFD, D1, D2, D3, D5, D7, D8, D9 and D10 groups collected in the pre-SPF mice experiments and then the relative abundance of A. muciniphila was determined using qPCR.

[2] = Short-term feed intake experiment of SPF mice; assay type: in vivo, C57/B16J mice; conditions: after 8 weeks of treatment, starved one day then fed
Experimental: A total of 2 treatments were set up, each with one cage of C57/B16J mice, and the high-fat diet used was rodent feed (containing 60 kcal % fat, D12492), and each treatment was subjected to different feeding treatments, specifically as follows:
HFD group (i.e. high-fat diet group): fed with high-fat diet.
as §1, §2
D3 group (i.e. high-fat diet+D3 intragastric administration group): fed with high-fat diet, free diet and drinking water. […]
According to the above treatment, it was carried out for 8 weeks, and then within 1 week, the mice were starved for one day and then given feed, and the feed intake of the animals in the following day was recorded. That is, food weights were recorded every other day (4 separate measurements) and the average daily intake was determined for each 2-day period and calculated for each individual during the one-week measurement period. […]

[3] = cited from earlier work
[4] = Phase 3, overweight or obese adults, subcutaneous 2.4 mg/week

Compound	subcutaneous and visceral fat weight (inguinal subcutaneous, epididymis, perirenal) vs HFD group [1]	weekly feed intake vs control HFD group [1]	body weight decrease compared with the HFD group [1]	relative abundance of A. muciniphila in the intestinal flora by qPCR (A. muciniphila)	also measured
RTCYCRTGR [D9]	significantly lower than that of the HFD group	significant difference in feed intake	11.09%	significantly increased	–
ATCYRRTGR [D4]	–	no significant effect	3.55%	–	short-term feed intake vs HFD group [2]: no significant effect
RTCYKRTGR [D5]	significantly lower than that of the HFD group	significant difference in feed intake	11.8%	significantly increased	–
GTRYKRTGR [D8]	significantly lower than that of the HFD group	significant difference in feed intake	10.07%	significantly increased	–
CCCCCCCCCCC[C@@H](C[C@@H]1OC(=O)[C@H]1CCCCCC)OC(=O)[C@H](CC(C)C)NC=O [orlistat, Orlistat]	–	–	–	–	body weight lost ([3]; obese patients, within 12 months): 2.9 to 3.4 kg
GTCYKRTGR [D2]	significantly lower than that of the HFD group	significant difference in feed intake	9.45%	significantly increased	–
GTRYCRTGR [D10]	significantly lower than that of the HFD group	significant difference in feed intake	11.06%	significantly increased	–
C[C@H]1CNCCc2ccc(Cl)cc21 [Lorcaserin]	–	–	–	–	additional weight lost per year ([3]; obese subjects during the medication period): 3.2 to 3.6 kg
semaglutide	–	–	–	–	average weight lost [3, 4]: 15.3 kg; average weight lost, of initial body weight [3, 4]: 14.9%; mean body mass index (BMI) drop [3, 4]: 5.54
ATRYCRTGR [D6]	–	no significant effect	3.78%	–	short-term feed intake vs HFD group [2]: no significant effect
GTCYCRTGR [D7]	significantly lower than that of the HFD group	significant difference in feed intake	8.08%	significantly increased	–
RTRYKRTGR [D1]	significantly lower than that of the HFD group	significant difference in feed intake	11.62%	significantly increased	–
